Results on 95 molecules are retold here after the RepoRT retention time repository (doi:10.1016/j.jhazmat.2019.121712).

The nature of this series: Thermo Scientific Acclaim RSLC 120 C18, 100 × 2.1 mm, 2.2 µm, 30 °C; A: 90% water + 10% methanol + 0.01% formic acid + 5 mM ammonium formate; B: methanol + 0.01% formic acid + 5 mM ammonium formate; gradient (min/%B) 0.1/1 3/39 14/99.9 16/99.9. The following applies: stereoisomer not certain.
For `CCCc1nn(C)c2c(=O)[nH]c(-c3cc(S(=O)(=O)N4CCCCC4)ccc3OCC)nc12`, the LC retention time is 10.9 min. Take `CCCC(=O)Nc1ccc(OCC(O)CNC(C)C)c(C(C)=O)c1` (stereo not given): the LC retention time was 4.78 min. `Nc1ncn[nH]1`: the LC retention time was determined as 1.44 min. Turning to `CCCNC1CCc2nc(N)sc2C1` (stereo not given), the LC retention time was determined as 2.64 min. With `CC(COc1ccc(Oc2ccccc2)cc1)Oc1ccccn1` (stereo not given) the figure was 12.6 min.

With `CCCCN(CCCC)SN(C)C(=O)Oc1cccc2c1OC(C)(C)C2`, the LC retention time was found to be 13.8 min. Turning to `CC(C)(C)NCC(O)COc1cccc2c1CCCC2=O` (stereo not given), the LC retention time was determined as 4.84 min. As for `COC(=O)C1=CCCN(C)C1`, the LC retention time came to 1.74 min. With `CNC(=C[N+](=O)[O-])NCCSCc1ccc(C[N+](C)(C)[O-])o1` the figure was 3.43 min. On to `COCC(=O)N(c1c(C)cccc1C)C(C)C(=O)OC` (stereo not given), for which the LC retention time came to 8.22 min. Take `Cc1nc(NS(=O)(=O)c2ccc(N)cc2)oc1C`: the LC retention time came out at 4.11 min. For `CC(C)(C)c1n[nH]c(=O)n(N)c1=O` the value was 5.89 min; for `COc1ccc2c3c1OC1C(OC4OC(C(=O)O)C(O)C(O)C4O)C=CC4C(C2)NCCC341` (stereo not given), 2.48 min. `NC(=O)N1c2ccccc2C2OC2c2ccccc21` (stereo not given): the LC retention time was 6.04 min. Regarding `NC(=O)C1CCNCC1`, the LC retention time came to 1.26 min. In the case of `OC(CCN1CCCCC1)(c1ccccc1)C1CCCCC1` (stereo not given), the LC retention time turned out to be 7.86 min. For the molecule `CCCc1nn(C)c2c(=O)[nH]c(-c3cc(C(=O)CN4CCN(CC)C(=O)C4=O)ccc3OCC)nc12`, the LC retention time amounted to 8.18 min. Regarding `COc1cc(SC(C)C)c(OC)cc1CCN`, the LC retention time stood at 6.69 min. For the molecule `CN1CCN2c3ncc(O)cc3Cc3ccccc3C2C1` (stereo not given), the LC retention time stood at 4.54 min.

On to `COc1cc(NS(=O)(=O)c2ccc(NC(C)=O)cc2)nc(OC)n1`, for which the LC retention time is 6.23 min. On to `CCOP(=O)(OCC)OCC`, for which the LC retention time was found to be 6.16 min. Take `CC=C1CC(C)C(C)(O)C(=O)OCC2=CCN3CCC(OC1=O)C23` (stereo not given): the LC retention time was 4.62 min.

Regarding `CCCCn1cc(C(=O)c2cccc3ccccc23)c2c(O)cccc21`, the LC retention time stood at 12 min. Take `CN1CSC(=S)N(C)C1`: the LC retention time worked out at 3.97 min. For `CSc1ccc(C(=O)c2[nH]c(=O)[nH]c2C)cc1` the value was 6.67 min.

With `COc1ccc(CCN(C)CCCC(C#N)(c2cc(OC)c(OC)c(OC)c2)C(C)C)cc1OC` (stereo not given), the LC retention time was 7.19 min. For `S=c1[nH]c2ccccc2s1` the value was 6.89 min; for `CCCc1nn(C)c2c(=O)[nH]c(-c3cc(C(=O)CN4CCCCC4)ccc3OCC)nc12`, 7.14 min. As for `Nc1ccc(S(=O)(=O)NC(=O)c2ccccc2)cc1`, the LC retention time is 4.72 min.

As for `CCc1cc2c(s1)-n1c(C)nnc1CN=C2c1ccccc1`, the LC retention time was determined as 8.43 min. As for `CC(=O)Nc1ccc(S(=O)(=O)Nc2cc(C)on2)cc1`, the LC retention time was 5.28 min. With `CSc1ccc(CC(C)N)cc1` (stereo not given), the LC retention time worked out at 5.24 min.

`Cc1nnc(NS(=O)(=O)c2ccc(N)cc2)s1`: the LC retention time was 4.21 min.

For `CCCOc1ccc(S(=O)(=O)NCCC2CCCN2C)cc1-c1nc2c(CCC)nn(C)c2c(=O)[nH]1` (stereo not given), the LC retention time stood at 7.83 min. Turning to `CCCc1nn(C)c2c(=O)[nH]c(-c3cc(S(=O)(=O)N4CCNCC4)ccc3OCC)nc12`, the LC retention time came out at 7.35 min.

Take `COC(=O)NC(C(=O)NC(Cc1ccccc1)C(O)CN(Cc1ccc(-c2ccccn2)cc1)NC(=O)C(NC(=O)OC)C(C)(C)C)C(C)(C)C` (stereo not given): the LC retention time turned out to be 10.9 min. As for `O=C(c1cccc2ccccc12)c1cn(CC2CCCCC2)c2ccccc12`, the LC retention time stood at 13 min. For the molecule `Cn1c(=O)c2c(ncn2CC(O)CO)n(C)c1=O` (stereo not given), the LC retention time worked out at 3.76 min.

As for `OCCOCCN1CCN(C2=Nc3ccc(O)cc3Sc3ccccc32)CC1`, the LC retention time came out at 4.99 min. Regarding `COC(=O)c1ccc(C)cc1C1=NC(C)(C(C)C)C(=O)N1` (stereo not given), the LC retention time came out at 7.16 min. For `CCCNC(C)C(=O)Nc1c(C)csc1C(=O)OC` (stereo not given) the value was 4.69 min; for `CCCN(CCC)c1c([N+](=O)[O-])cc(C(C)C)cc1[N+](=O)[O-]`, 13.2 min.

As for `CN1C2CCC1CC(OC(=O)C(O)c1ccccc1)C2` (stereo not given), the LC retention time is 3.73 min.

As for `CCCC(NC(C)C(=O)N1C(C(=O)O)CC2CCCCC21)C(=O)OCC` (stereo not given), the LC retention time is 13.2 min. For `O=C(c1cccc2ccccc12)c1cn(CCN2CCOCC2)c2ccccc12`, the LC retention time was found to be 9.88 min.

For `COc1nc(C)nc(N)n1`, the LC retention time was 3.71 min. For `CCOP(=O)(OCC)OP(=O)(OCC)OCC` the value was 6.49 min; for `CC(C)NCC(O)COc1cccc2[nH]ccc12` (stereo not given), 3.89 min; for `CCCCCn1c(C)c(C(=O)c2cccc3ccccc23)c2ccccc21`, 12.6 min. Consider `COC(=O)C1=C(C)NC(C)=C(C(=O)OCC(C)C)C1c1ccccc1[N+](=O)[O-]` (stereo not given), for which the LC retention time was 10.6 min. Consider `CCC(C)(C)c1ccc(CC(C)CN2CC(C)OC(C)C2)cc1` (stereo not given), for which the LC retention time worked out at 12.9 min.

Take `COc1cccc(C2(O)CCCCC2CN)c1` (stereo not given): the LC retention time was determined as 5.19 min.

For `CNC(=O)Oc1ccc2c(c1)C1(C)CCN(C)C1N2C` (stereo not given), the LC retention time came out at 3.89 min. On to `CCOC(=O)C=C1SC(N2CCCCC2)C(=O)N1CC` (stereo not given), for which the LC retention time was 9.85 min. As for `CNC(C)C(O)c1ccc(O)cc1` (stereo not given), the LC retention time came out at 2.05 min. With `CC12CCC3c4ccc(O)cc4CCC3C1CCC2=O` (stereo not given) the figure was 9.56 min; with `Cn1c(=O)c2c(ncn2CCCNCC(O)c2cc(O)cc(O)c2)n(C)c1=O` (stereo not given), 3.56 min. As for `Cc1ccccc1CC(C)N` (stereo not given), the LC retention time is 5.17 min. Turning to `CCCc1nn(C)c2c(=O)[nH]c(-c3cc(S(=O)(=O)N4CCN(CC)CC4)ccc3OCC)nc12`, the LC retention time worked out at 7.84 min. For `CC1=NNC(=O)N(N=Cc2cccnc2)C1` the value was 4.01 min. As to `CCN(CC)C(=O)Nc1ccc(OCC(O)CNC(C)(C)C)c(C(C)=O)c1` (stereo not given), the LC retention time amounted to 5.24 min. For `CC(C)(C)NCC(O)c1ccc(O)c(CO)c1` (stereo not given) the value was 3.23 min; for `CCOc1ccc2c3c1OC1C(O)C=CC4C(C2)N(C)CCC341` (stereo not given), 4.08 min. `O=C1OCC(O)=C1Cc1ccccc1`: the LC retention time came to 5.06 min. For `CN(CCO)c1nc2c(c(=O)n(C)c(=O)n2C)n1C` the value was 4.94 min; for `COC(=O)C1C(O)CCC2CN3CCc4c([nH]c5ccccc45)C3CC21` (stereo not given), 5.08 min.

On to `COc1ccc2[nH]cc(CCN)c2c1`, for which the LC retention time came out at 4.01 min.

As for `COc1ccc(C(CN(C)C)C2(O)CCCCC2)cc1` (stereo not given), the LC retention time is 6.14 min. With `Nc1nc2c(ncn2COCCO)c(=O)[nH]1`, the LC retention time was 2.34 min. For `CSC(C)=NOC(=O)N(C)SN(C)C(=O)ON=C(C)SC`, the LC retention time was 7.64 min.

Consider `Nc1ccc(S(=O)(=O)Nc2ncccn2)cc1`, for which the LC retention time is 3.48 min.

Take `CC(C)(C(=O)O)c1ccc(C(O)CCCN2CCC(C(O)(c3ccccc3)c3ccccc3)CC2)cc1` (stereo not given): the LC retention time came out at 7.68 min. Consider `CN1CCCCC1CCN1c2ccccc2Sc2ccc(S(C)=O)cc21` (stereo not given), for which the LC retention time is 6.74 min. On to `O=C1CN=C(c2ccccc2)c2cc([N+](=O)[O-])ccc2N1`, for which the LC retention time is 7.79 min.

In the case of `CCCCCc1cc(O)c2c(c1)OC(C)(C)C1CCC(C)=CC21` (stereo not given), the LC retention time was determined as 14 min.

On to `CCC1OC(=O)C(C)C(OC2CC(C)(OC)C(O)C(C)O2)C(C)C(OC2OC(C)CC(N(C)C)C2O)C(C)(O)CC(C)CN(C)C(C)C(O)C1(C)O` (stereo not given), for which the LC retention time amounted to 5.98 min. Regarding `CN(C)CCCN1c2ccccc2Sc2cccnc21`, the LC retention time came to 7.21 min. Turning to `COP(=O)(NC(C)=O)SC` (stereo not given), the LC retention time was found to be 3.11 min. With `COC(=O)Nc1nc2ccc(C(=O)c3ccccc3)cc2[nH]1` the figure was 8.25 min; with `C=C1CC2C(CCC3(C)C(=O)CCC23)C2(C)C=CC(=O)C=C12` (stereo not given), 9.03 min; with `CON=C(C(=O)OC)c1ccccc1COc1ccccc1C`, 10.8 min. Regarding `CN(C)C(=N)N=C(N)N`, the LC retention time was 1.39 min.

Turning to `CCCCCn1nc(C(=O)NC23CC4CC(CC(C4)C2)C3)c2ccccc21`, the LC retention time is 14 min. With `COc1cc(OC)nc(Oc2cccc(Oc3nc(OC)cc(OC)n3)c2C(=O)O)n1` the figure was 8.86 min. Regarding `CN(C)CCC=C1c2ccccc2C=Cc2ccccc21`, the LC retention time came to 7.95 min.

As to `COc1ccccc1CC(=O)c1cn(CCC2CCCCC2)c2ccccc12`, the LC retention time was found to be 13 min. Take `CNC1C(OC2C(OC3C(O)C(O)C(N=C(N)N)C(O)C3N=C(N)N)OC(C)C2(O)CO)OC(CO)C(O)C1O` (stereo not given): the LC retention time stood at 1.26 min. With `CCOC(=O)C(CCc1ccccc1)NC1CCCN2CCCC(C(=O)O)N2C1=O` (stereo not given), the LC retention time was 7.94 min.

As for `Oc1ccc2c3c1OC1C(O)CCC4(O)C(C2)N(CC2CCC2)CCC314` (stereo not given), the LC retention time stood at 4.17 min.

On to `CN1CCC(OC(c2ccccc2)c2ccccc2)CC1`, for which the LC retention time came to 7.23 min. Turning to `CCOP(=S)(OCC)SC1OCCOC1SP(=S)(OCC)OCC` (stereo not given), the LC retention time was determined as 12.1 min.

Regarding `CCNC(=O)C(C)OC(=O)Nc1ccccc1` (stereo not given), the LC retention time amounted to 6.58 min.

Regarding `COC(=O)C(Cc1ccccc1)NC(=O)C(N)CC(=O)O` (stereo not given), the LC retention time stood at 5.01 min. As to `CC12CCC3C4CCC(=O)C=C4CCC3C1CCC2O` (stereo not given), the LC retention time amounted to 9.37 min.

For the molecule `CSc1ccc2c(c1)N(CCC1CCCCN1C)c1ccccc1S2` (stereo not given), the LC retention time was found to be 9.34 min.
